Literature values as cited in patent US7217837B2, “Method for producing organic acid” (Mitsubishi Chemical Corporation, priority 2002, dated 2007).

What was measured:
[1] = water, Table 1, literature values
[2] = Table 1; literature values
[3] = Table 1; for pKa1: literature values (Pyne Organic Chemistry; Handbook of Chemistry and Physics); for pKa2: literature values

Solubility at 25° C. [1] [g/100 gH2O]	Isoelectric point pI [2]	pKa1 [3]	SMILES	pKa2 [3]
3.11	5.41	2.02	NC(=O)C[C@H](N)C(=O)O [Asparagine]	
	2.98		N[C@@H](CC(=O)O)C(=O)O [Aspartic acid]	
	3.08		N[C@@H](CCC(=O)O)C(=O)O [Glutamic acid]	
3.6			NC(=O)CC[C@H](N)C(=O)O [Glutamine]	
4.29	7.64		N[C@@H](Cc1c[nH]cn1)C(=O)O [Histidine]	
4.117	6.04	2.32	CC[C@H](C)[C@H](N)C(=O)O [Isoleucine]	
2.19			CC(C)C[C@H](N)C(=O)O [Leucine]	
		3.40	O=C(O)CC(O)C(=O)O (stereo not drawn) [Malic acid]	5.11
3.35	5.74	2.28	CSCC[C@H](N)C(=O)O [Methionine]	
2.965	5.91	2.58	N[C@@H](Cc1ccccc1)C(=O)O [Phenylalanine]	
		4.52	O=C(O)CCCCCCC(=O)O [Suberic acid]	
	5.66		N[C@@H](Cc1ccc(O)cc1)C(=O)O [Tyrosine]	
8.85	6	2.29	CC(C)[C@H](N)C(=O)O [Valine]	

SMILES	Solubility at 25° C. [1] [g/100 gH2O]	Isoelectric point pI [2]	pKa1 [3]	pKa2 [3]
O=C(O)CCCC(=O)O [Glutaric acid]			4.31	5.41
N[C@@H](Cc1c[nH]c2ccccc12)C(=O)O [Tryptophan]	1.14	5.88	2.38	
